Results published in US11802107B2, “Compounds and methods of use” (Signum Biosciences, Inc., priority 2017, dated 2023).
≈ marks a conversion by molar mass, not a printed value. Counter-ions that a name gives are not always drawn. Like-named read-outs stand apart in the source and are kept apart here.

How the values were obtained:
P. acnes (ATCC 6919) [1] = test: Minimal inhibitory concentration (MIC) against P. acnes; assay type: cell-based, Propionibacterium acnes; details: P. acnes ATCC 6919, 10^6 CFU/mL
Protocol: To determine minimal inhibitory concentration (MIC), reagents were dissolved in vehicle (5% v/v) and then added to bacteria suspension. P. acnes (ATCC® 6919TM) at 10^6 CFU/mL was incubated with test materials at the concentrations of two-fold serial dilution (0.25-500 μg/mL) and incubated for 72 hours (P. acnes).

P. acnes (ATCC 6919) [2] = test: Minimal bactericidal concentration (MBC) against P. acnes; assay type: cell-based, Propionibacterium acnes; details: Cutibacterium acnes, ATCC6919; P. acnes 10^7 CFU/mL, in PBS, anaerobic conditions
IL-8 = test: P. acnes-induced IL-8 on human NHEKs; assay type: cell-based; details: NHEK, live P. acnes 10^7 CFU, 24 hours, ELISA, read-out: P. acnes-NHEK IL-8 Protein IC50
Protocol: Normal human epidermal keratinocytes (NHEKs) from neonatal donors were obtained from Thermo-Fisher (Cat No. C-001-5C). Cells were cultured in 96-well plates for 24 hours with EpiLife media (Cat No. MEPI500CA) supplemented with keratinocytes growth supplement (Cat No. S0015). On Day 2, media was removed and replaced with supplement-depleted medium for 24 hours. On Day 3, media was removed and cells were pre-treated with test materials ([…]) for 2 hours and later co-treated with test materials and live P. acnes (ATCC® 6919TM) at 10^7 CFU for 24 hours at 37° C. and 5% CO2. After incubation, cell media supernatants were harvested and used to measure pro-inflammatory cytokine levels (IL-8) using ELISA kits (BD Biosciences® #555244). Results were represented as percent of inhibition relative to untreated and P. acnes-only treated cells. IC50 values were determined by non-linear regression analysis using the four-parameter logistic equation.

Balb/C mice = test: Oxazolone-induced delayed-type hypersensitivity (DTH) in vivo model; details: Mus musculus, topical to ears @ 3% w/v, 24 hours, read-out: Edema % inhibition
Protocol: Inbred male Balb/C mice were purchased from Hilltop Lab Animals (Scottdale, PA) and were used between 8 and 10 weeks of age. Mice backs were shaved and 100 μl of 3% v/v Oxazolone (Sigma Aldrich, Cat No. E0753) in acetone/olive oil (4:1) was applied to dorsal skin for sensitization. On Day 7, ears were challenged with 0.5% v/v Oxazolone and 30 minutes after challenge, test materials at 3% w/v were applied to ears (10 μl applied both to the dorsal and ventral surfaces of the mouse ear using a solvent pipette) and 24 hours later, skin thickness (edema) was measured. A 6-mm punch biopsy was obtained from each ear, snap frozen in liquid nitrogen. Ear skin biopsy punches were pulverized using FastPrep®-24 Biopulverizer (MP Biomedical, CatNo. 116004500) and Lysing Matrix A tubes (CatNo. 16910050). Protein extracts were obtained using 500 μL/tissue of cold T-PER buffer (ThermoFisher, CatNo. 78510) with Protease inhibitors (Sigma-Aldich, CatNo. 58820-20TAB). Soluble protein fractions were used to measure cytokine levels (IL-4) using ELISA kit (BD Biosciences® #555232). Results were represented as percent of inhibition relative to unsensitized and sensitized-only treated animals. Vehicle for presently disclosed compounds was 60:40 H2O:EtOH and 1:1 Acetone:EtOH for AN2718. (n=5-15 animals per treatment group).
Compound C was further analyzed at various dosages against 0.4 mg/ear of […] by the above protocol, data representing the average±S.E. of cumulative data from three independent experiments (n=12-15 mice per group) is shown below: […]

[3] = Cutibacterium acnes, ATCC6919, 72 h, read-out: MIC

Compound	MIC (P. acnes (ATCC 6919) [1]; [3]) [µg/mL]	also measured
CC(C)=CCC/C(C)=C/CC/C(C)=C/CSCC(NC(=O)N1CCCC1C(=O)O)C(=O)O (centres unmarked) [AD]	> 125	
CC(C)=CCC/C(C)=C/CC/C(C)=C/CSCC(NC(=O)N(CC(=O)O)CC(=O)O)C(=O)O (centres unmarked) [AF]	> 125	
CC(C)=CCC/C(C)=C/CC/C(C)=C/CSCC(NC(=O)COCC(=O)O)C(=O)O (centres unmarked) [AQ]	> 125	
C/C(=C\CSCC(NC(=O)N1CCCCC1C(=O)O)C(=O)O)CCCC(C)CCCC(C)CCCC(C)C (centres unmarked) [AW]	> 125	
CSCC(NC(=O)N(CC(=O)O)CC(=O)O)C(=O)O (centres unmarked) [AX]	> 125	
O=C(O)CN(CC(=O)O)C(=O)NC12CC3CC(CC(C3)C1)C2 [AY]	> 125	
C/C(=C\CSC[C@H](NC(=O)N1CCC1C(=O)O)C(=O)O)CCCC(C)CCCC(C)CCCC(C)C (some centres unmarked) [AZ]	63 (≈ 120 µM)	
C/C(=C\CSc1ccc(C(=O)O)cn1)CCCC(C)CCCC(C)CCCC(C)C (centres unmarked) [BA]	> 125	
C/C(=C\CSC[C@H](NC(=O)Nc1ncc(C(=O)O)c(C(F)(F)F)n1)C(=O)O)CCCC(C)CCCC(C)CCCC(C)C (some centres unmarked) [BB]	31 (≈ 49 µM)	
C/C(=C\CSCC(NC(=O)N1CC(O)CC1C(=O)O)C(=O)O)CCCC(C)CCCC(C)CCCC(C)C (centres unmarked) [BC]	12 (≈ 21.6 µM)	
C/C(=C\CSCC(NC(=O)N1CCCCC1)C(=O)O)CCCC(C)CCCC(C)CCCC(C)C (centres unmarked) [BD]	> 125	
C/C(=C\CSCC(NC(=O)N1CCCC(C(=O)O)C1)C(=O)O)CCCC(C)CCCC(C)CCCC(C)C (centres unmarked) [BE]	23 (≈ 41.5 µM)	
C/C(=C\CSCC(Nc1ncccn1)C(=O)O)CCCC(C)CCCC(C)CCCC(C)C (centres unmarked) [BF]	> 125	
C/C(=C\CSCC(Nc1nccc(C(=O)O)n1)C(=O)O)CCCC(C)CCCC(C)CCCC(C)C (centres unmarked) [BG]	42 (≈ 80.5 µM)	
C/C(=C\CSCC(Nc1ncc(C(=O)O)cn1)C(=O)O)CCCC(C)CCCC(C)CCCC(C)C (centres unmarked) [BH]	4 (≈ 7.67 µM)	MBC (P. acnes (ATCC 6919) [2]): 16 µg/mL (≈ 30.7 µM)
C/C(=C\CSC[C@H](NC(=O)N(CC#N)CC(N)=O)C(=O)O)CCCC(C)CCCC(C)CCCC(C)C (some centres unmarked) [BJ]	23 (≈ 42.7 µM)	
C/C(=C\CSC[C@H](Nc1cnc(C(=O)O)cn1)C(=O)O)CCCC(C)CCCC(C)CCCC(C)C (some centres unmarked) [BK]	31 (≈ 59.4 µM)	
C/C(=C\CSC[C@H](Nc1ncc(C(=O)O)c(C)n1)C(=O)O)CCCC(C)CCCC(C)CCCC(C)C (some centres unmarked) [BL]	7 (≈ 13.1 µM)	MBC (P. acnes (ATCC 6919) [2]): > 62 µg/mL
C/C(=C\CSCC(Nc1ccnc(N(C)CC(=O)O)n1)C(=O)O)CCCC(C)CCCC(C)CCCC(C)C (centres unmarked) [BM]	6 (≈ 10.6 µM)	MBC (P. acnes (ATCC 6919) [2]): > 62 µg/mL
C/C(=C\CSCC(Nc1nccc(N(C)CC(=O)O)n1)C(=O)O)CCCC(C)CCCC(C)CCCC(C)C (centres unmarked) [BN]	8 (≈ 14.2 µM)	MBC (P. acnes (ATCC 6919) [2]): 31 µg/mL (≈ 54.9 µM)

Compound	MIC (P. acnes (ATCC 6919) [1]; [3]) [µg/mL]	also measured
C/C(=C\CSC(C)(C)C(NC(=O)CCC(=O)O)C(=O)O)CCCC(C)CCCC(C)CCCC(C)C (centres unmarked) [BO]	125 (≈ 237 µM)	
C/C(=C\CSC(C)(C)C(Nc1ncc(C(=O)O)cn1)C(=O)O)CCCC(C)CCCC(C)CCCC(C)C (centres unmarked) [BP]	> 125	
CCC[C@@H]1C[C@@H](C(=O)N[C@@H]([C@H]2O[C@H](SC)[C@H](O)[C@@H](O)[C@H]2O)[C@H](C)Cl)N(C)C1 [Clindamycin HCl, reference compound]	0.06	
C[C@H]1C[C@H]2[C@@H]3CCC4=CC(=O)C=C[C@]4(C)[C@@]3(F)[C@@H](O)C[C@]2(C)[C@@]1(O)C(=O)CCl [Clobetasol, reference compound]		IC50 (IL-8): 33 nM
C/C(=C/CSC[C@H](NC(=O)N(C)CC(=O)O)C(=O)O)CCCC(C)CCCC(C)CCCC(C)C (stereo partly drawn) [Compound BI, (2R)-2-{[(carboxymethyl)(methyl)carbamoyl]amino}-3-{[(2Z)-3,7,11,15-tetramethylhexadec-2-en-1-yl]sulfanyl}propanoic acid]	12 (≈ 23.3 µM)	
C[C@H]1c2cccc(O)c2C(=O)C2=C(O)[C@]3(O)C(=O)C(C(N)=O)=C(O)[C@@H](N(C)C)[C@@H]3[C@@H](O)[C@@H]21 [Doxycycline, reference compound]	< 0.2	
C/C(=C\CSCC(NC(=O)CCC(N)=O)C(=O)O)CCCC(C)CCCC(C)CCCC(C)C (centres unmarked) [F]	6 (≈ 12 µM)	IC50 (IL-8; Homo sapiens): 1690 nM
C/C(=C\CSCC(NC(=O)c1ccc(O)c(C(=O)O)c1)C(=O)O)CCCC(C)CCCC(C)CCCC(C)C (centres unmarked) [H]	6 (≈ 10.6 µM)	inhibition in vivo at 3 % strength (Balb/C mice): 14%; IC50 (IL-8; Homo sapiens): 20 nM
CC(=O)N[C@@H](CC(=O)O)C(=O)NC(CSC/C=C(\C)CCCC(C)CCCC(C)CCCC(C)C)C(=O)O (some centres unmarked) [J]	32 (≈ 57.5 µM)	inhibition in vivo at 3 % strength (Balb/C mice): 10%
CC(=O)NC(C(=O)NC(CSC/C=C(\C)CCCC(C)CCCC(C)CCCC(C)C)C(=O)O)C(C)CO (centres unmarked) [K]	> 250	
CSCCC(NC(C)=O)C(=O)NC(CSC/C=C(\C)CCCC(C)CCCC(C)CCCC(C)C)C(=O)O (centres unmarked) [L]		MIC (P. acnes (ATCC 6919) [1]; 72 hours): >16 µg/mL
CC(=O)NC(CC(C)C)C(=O)NC(CSC/C=C(\C)CCCC(C)CCCC(C)CCCC(C)C)C(=O)O (centres unmarked) [M]	16 (≈ 28.8 µM)	
CC(=O)NC(C(=O)NC(CSC/C=C(\C)CCCC(C)CCCC(C)CCCC(C)C)C(=O)O)C(C)O (centres unmarked) [N]	> 250	
CC(=O)NC(Cc1ccccc1)C(=O)NC(CSC/C=C(\C)CCCC(C)CCCC(C)CCCC(C)C)C(=O)O (centres unmarked) [O]	32 (≈ 54.3 µM)	
CC(=O)NC(CC(N)=O)C(=O)NC(CSC/C=C(\C)CCCC(C)CCCC(C)CCCC(C)C)C(=O)O (centres unmarked) [P]	10 (≈ 18 µM)	
CC(=O)NC(COC(C)(C)C)C(=O)NC(CSC/C=C(\C)CCCC(C)CCCC(C)CCCC(C)C)C(=O)O (centres unmarked) [R]	> 25	inhibition in vivo at 3 % strength (Balb/C mice): 24%
C/C(=C\CSCC(NC(=O)C(O)(CC(=O)O)CC(=O)O)C(=O)O)CCCC(C)CCCC(C)CCCC(C)C (centres unmarked) [U]	19 (≈ 33.1 µM)	inhibition in vivo at 3 % strength (Balb/C mice): 18%
C/C(=C\CSCC(N/C(=N/C#N)N(C)CC(=O)O)C(=O)O)CCCC(C)CCCC(C)CCCC(C)C (centres unmarked) [W]	62 (≈ 115 µM)	inhibition in vivo at 3 % strength (Balb/C mice): 22%
C/C(=C\CSCC(NC(=O)c1ccc(C(=O)O)cc1)C(=O)O)CCCC(C)CCCC(C)CCCC(C)C (centres unmarked) [X]	> 25	inhibition in vivo at 3 % strength (Balb/C mice): 15%
C/C(=C\CSCC(NC(=O)N1CCC(C(=O)O)CC1)C(=O)O)CCCC(C)CCCC(C)CCCC(C)C (centres unmarked) [Y]	50 (≈ 90.1 µM)	inhibition in vivo at 3 % strength (Balb/C mice): 0%
